Series [1] is described as follows: Particle size distribution (PSD) by laser diffraction, Malvern Mastersizer 2000. In kind it is physicochemical. As to the method:
(§1) For the purposes herein, particle size distribution (PSD) is determined as the percent volume, i.e. D(90) and D(3,2) and was measured by laser diffraction using a Malvern Mastersizer 2000 equipped with a Hydro 2000 S dispersion unit.
(§2) The measurements were performed in saturated water dispersion medium (refractive index=[…] (general purpose)). The water was saturated with olanzapine to prevent dissolution of the sample while measuring. Dispersion medium was prepared by adding about 3 gm olanzapine to 1 liter water, sonicating in an ultrasound bath for 30 min and filtering (0.22-0.45 μm). The samples were added as concentrated suspension under stirring until an obscuration rate of 10-20% was reached. The results were values arising from ten measurement cycles with a recirculation time (after sonification) of 30 sec.
(§3) Sample preparation: Samples were prepared as concentrated suspensions. About 50-100 mg of the olanzapine sample was added with a spatula to a small sized glass beaker and several drops of saturated water dispersion medium was added. A paste was obtained by mild mixing, and an additional quantity (1 ml) of saturated water dispersion medium was added in order to obtain a concentrated homogeneous suspension.

A short description of series [2]: Bulk/tapped density, Ph. Eur. 2.9.34 Method 1, ERWEKA SVM 122. Conditions: Table 1. The class given is physicochemical. As to the method: Bulk density/tapped density were determined by European Pharmacopoeia 2.9.34. Method 1 (https://www.drugfuture.com/Pharmacopoeia/EP7/DATA/20934E.PDF; PDF downloaded Nov. 14, 2021).
The bulk and tapped densities were determined using the Tapped Density Tester SVM 122 from ERWEKA, equipped with a 100 mL glass cylinder. Approximately 30 g of the powder was carefully poured into the 100 mL measuring cylinder with a funnel. Bulk density was calculated by dividing the amount of powder (in gram) by the measured volume (mL). The tapped density was then determined as follows:
If the difference between V500 and V1250 was bigger than 2 mL, taps were repeated: i.e. tapped another 1250× and repeated until difference was below 2 mL. • Bulk density=sample weight/volume before tapping. • Tapped density=weight/volume after tapping. • Calculation: […]

The nature of series [3]: Flow function by FT4 Powder Rheometer, shear test 9 kPa. Particulars: 9 kPa shear test, 1 ml cell. In kind it is physicochemical. As to the method: The flow function (FF) was determined by using FT4 Powder Rheometer, Freeman FT4 instrument, and standard Freeman shear test −9 kPa (using small cell 1 ml), according to the procedure below: • Compact to 9 kPa for 60 s • Pre shear hold 7 kPa for 16 s • Shear test at 7 kPa (Shear at 18°/min for 10°, auto detected peak torque yes) • Pre shear hold 6 kPa for 16 s • Shear test at 6 kPa (Shear at 18°/min for 10°, auto detected peak torque yes) • Pre shear hold 5 kPa for 16 s • Shear test at 5 kPa (Shear at 18°/min for 10°, auto detected peak torque yes) • Pre shear hold 4 kPa for 16 s • Shear test at 4 kPa (Shear at 18°/min for 10°, auto detected peak torque yes) • Pre shear hold 3 kPa for 16 s • Shear test at 3 kPa (Shear at 18°/min for 10°, auto detected peak torque yes)

Series [4] in a line: PSD of bulk API compared to PSD of API in vial after dry heat sterilization. The class given is physicochemical. Conditions: for D(3,2) / D(90): Table 3, bulk API or API in vial after dry heat sterilization 150-160° C., two hours, per sample name. How it is done: as §1, §2, §3
Closed and crimped vials filled with API were terminally sterilized at 150-160° C. using dry heat for two hours in dry heat oven SP-470 by Kambič (Slovenia). Additional methods of terminal sterilization include radiation including for example, gamma radiation, X-ray, electron beam and the like with similar results. Alternatively, the API may be prepared aseptically
The manufacturing process for the final drug product includes a terminal sterilization step, and specifically the quality of the bulk API should not be affected by sterilization. Therefore, after the dry heat sterilization, samples of API in vials filled with two batches (with low PSD) were analyzed for PSD and compared to starting API material.

For series [5] the following is noted: background statement; cited from earlier work.
[6] abbreviates: Table 4, listed as Olanzapine S2-920.
Setting [7] is: Table 4, listed as Olanzapine M1-010.
[8] abbreviates: Table 4, listed as Olanzapine S1-220.
The mark [9] stands for this setting: Table 4, listed as Olanzapine S1-920.
[10] abbreviates: Table 4, listed as Olanzapine S3-020.
Setting [11] is: Table 4, listed as Olanzapine M7-121.
The mark [12] stands for this setting: Table 4, listed as Olanzapine S3-221.
Setting [13] is: Table 4, listed as Olanzapine M6-020.

`Cc1cc2c(s1)Nc1ccccc1N=C2N1CCN(C)CC1` [Batch S2-920, 2-methyl-4-(4-methyl-1-piperazinyl)-10H-thieno[2,3-b][1,5]benzodiazepine]: in series [1] (Table 1, bulk API batch), the “D(3,2)” value is 7.6 μm and the “D(90)” value amounted to 38 μm. For the same compound, in series [1] (setting [6]), the “D(90)” value came out at 38 μm and the “D(100)” value is recorded as 136 μm. For the same compound, in series [2], the “TD (tapped density)” value is recorded as 0.45 g/mL. In addition, the Flow function in series [3] worked out at 2.0.

For the compound `Cc1cc2c(s1)Nc1ccccc1N=C2N1CCN(C)CC1` [Batch M1-010, 2-methyl-4-(4-methyl-1-piperazinyl)-10H-thieno[2,3-b][1,5]benzodiazepine], in series [1] (Table 1, bulk API batch), the “D(3,2)” value is 4.2 μm and the “D(90)” value is given as 13 μm. In series [1] (setting [7]), the “D(90)” value stood at 14 μm and the “D(100)” value is given as 42 μm. Besides, the “TD (tapped density)” value in series [2] amounted to 0.37 g/mL. Further, the Flow function in series [3] is given as 1.4. For the same compound, in series [4], the “D(3,2)” value came out at 4.7 μm and the “D(90)” value is 14 μm.

For `Cc1cc2c(s1)Nc1ccccc1N=C2N1CCN(C)CC1` [Olanzapine, 2-methyl-4-(4-methyl-1-piperazinyl)-10H-thieno[2,3-b][1,5]benzodiazepine], the Water solubility result in series [5] is given as “poor”.

With `Cc1cc2c(s1)Nc1ccccc1N=C2N1CCN(C)CC1` [Batch M2-121, 2-methyl-4-(4-methyl-1-piperazinyl)-10H-thieno[2,3-b][1,5]benzodiazepine], the “D(3,2)” value in series [1] (Table 1, bulk API batch) was 6.4 μm; in series [4], 7.5 μm. Further, the “D(90)” value in series [1] (Table 1, bulk API batch) is reported as 30 μm; in series [4], 40 μm. Also, in series [2], the “TD (tapped density)” value is listed as 0.39 g/mL. In addition, in series [3], the Flow function is reported as 1.5.

For the compound `Cc1cc2c(s1)Nc1ccccc1N=C2N1CCN(C)CC1` [Batch S1-220, 2-methyl-4-(4-methyl-1-piperazinyl)-10H-thieno[2,3-b][1,5]benzodiazepine], the “D(3,2)” value came to 6.1 μm in series [1] (Table 1, bulk API batch) and 5.8 μm in series [4]. Moreover, the “D(90)” value in series [1] (Table 1, bulk API batch) is 26 μm; in series [1] (setting [8]), 29 μm; in series [4] it was 29 μm. In addition, in series [1] (setting [8]), the “D(100)” value is given as 142 μm. In addition, the “TD (tapped density)” value in series [2] was 0.39 g/mL. In series [3], the Flow function is listed as 1.5.

As for `Cc1cc2c(s1)Nc1ccccc1N=C2N1CCN(C)CC1` [Batch S1-920, 2-methyl-4-(4-methyl-1-piperazinyl)-10H-thieno[2,3-b][1,5]benzodiazepine], in series [1] (Table 1, bulk API batch), the “D(3,2)” value is 4.1 μm and the “D(90)” value stood at 11 μm. Further, in series [1] (setting [9]), the “D(90)” value worked out at 11 μm and the “D(100)” value is listed as 21 μm. Also, the “TD (tapped density)” value in series [2] was determined as 0.29 g/mL. The compound further registered a Flow function in series [3] of 1.2. Also, in series [4], the “D(3,2)” value worked out at 3.9 μm and the “D(90)” value is given as 11 μm.

On to `Cc1cc2c(s1)Nc1ccccc1N=C2N1CCN(C)CC1` [Batch S3-020, 2-methyl-4-(4-methyl-1-piperazinyl)-10H-thieno[2,3-b][1,5]benzodiazepine], for which, in series [1] (Table 1, bulk API batch), the “D(3,2)” value was determined as 5.4 μm and the “D(90)” value is listed as 17 μm. In series [1] (setting [10]), the “D(90)” value amounted to 16 μm and the “D(100)” value amounted to 90 μm. Further, the “TD (tapped density)” value in series [2] is reported as 0.28 g/mL. In addition, the Flow function in series [3] is recorded as 1.3. Also, the “PSD curves before and after sterilization” value in series [4] (FIG. 4B) is reported as “highly similar”. In series [4], the “D(3,2)” value was 5.2 μm and the “D(90)” value is 16 μm.

`Cc1cc2c(s1)Nc1ccccc1N=C2N1CCN(C)CC1` [Batch M7-121, 2-methyl-4-(4-methyl-1-piperazinyl)-10H-thieno[2,3-b][1,5]benzodiazepine]: in series [1] (Table 1, bulk API batch), the “D(3,2)” value stood at 8.3 μm and the “D(90)” value turned out to be 42 μm. Also, in series [1] (setting [11]), the “D(90)” value is given as 40 μm and the “D(100)” value is reported as 205 μm. In series [2], the “TD (tapped density)” value is reported as 0.50 g/mL. Also, in series [3], the Flow function was 2.1.

For the compound `Cc1cc2c(s1)Nc1ccccc1N=C2N1CCN(C)CC1` [Olanzapine S4-221, 2-methyl-4-(4-methyl-1-piperazinyl)-10H-thieno[2,3-b][1,5]benzodiazepine], in series [1] (Table 4), the “D(90)” value was 26 μm and the “D(100)” value came out at 110 μm.

With `Cc1cc2c(s1)Nc1ccccc1N=C2N1CCN(C)CC1` [Batch S3-221, 2-methyl-4-(4-methyl-1-piperazinyl)-10H-thieno[2,3-b][1,5]benzodiazepine], in series [1] (Table 1, bulk API batch), the “D(3,2)” value is 6.4 μm and the “D(90)” value was 26 μm. In series [1] (setting [12]), the “D(90)” value was determined as 24 μm and the “D(100)” value is reported as 61 μm. Also, the “TD (tapped density)” value in series [2] is given as 0.40 g/mL. This compound showed a Flow function in series [3] of 1.8.

As for `Cc1cc2c(s1)Nc1ccccc1N=C2N1CCN(C)CC1` [Batch M6-020, 2-methyl-4-(4-methyl-1-piperazinyl)-10H-thieno[2,3-b][1,5]benzodiazepine], the “D(3,2)” value stood at 6.6 μm in series [1] (Table 1, bulk API batch) and 6.5 μm in series [4]. The “D(90)” value turned out to be 24 μm in series [1] (Table 1, bulk API batch); 24 μm in series [1] (setting [13]); 24 μm in series [4]. Further, in series [1] (setting [13]), the “D(100)” value is reported as 205 μm. Moreover, in series [2], the “TD (tapped density)” value is recorded as 0.41 g/mL. The Flow function in series [3] amounted to 2.0.

Regarding `Cc1cc2c(s1)Nc1ccccc1N=C2N1CCN(C)CC1` [Olanzapine S2-121, 2-methyl-4-(4-methyl-1-piperazinyl)-10H-thieno[2,3-b][1,5]benzodiazepine], in series [1] (Table 4), the “D(90)” value is reported as 27 μm and the “D(100)” value stood at 196 μm.
